Molecule `Cc1cc(C)c(-c2c(O)n3n(c2=O)CCOCC3)c(C(C)C)c1` has a melting point of 214 to 216 °C. With `CCc1cc(C)cc(C)c1-c1c(O)n2n(c1=O)CCOCC2` the melting point was 182 to 185 °C. `COc1cc(C)cc(Br)c1-c1c(O)n2n(c1=O)CCOCC2` gave a melting point of 217 to 219 °C. In the case of `CCOC(=O)Oc1c(-c2c(CC)cc(C)cc2CC)c(=O)n2n1CCOCC2`, the melting point is reported as 114 to 116 °C. In the case of `CCc1cc(C)cc(C)c1-c1c(OC(=O)C(C)(C)C)n2n(c1=O)CCOCC2`, the melting point is reported as 110 to 113 °C. In the case of `COc1cc(C)cc(Br)c1-c1c(OC(=O)C(C)(C)C)n2n(c1=O)CCOCC2`, the melting point is reported as 173 to 175 °C. In the case of `Cc1cc(C)c(-c2c(OC(=O)C(C)(C)C)n3n(c2=O)CCOCC3)c(C(C)C)c1`, the melting point is reported as 148 to 151 °C.
